Test results: patent US6541612B2 (Wyeth, priority 1993, dated 2003)
Values belong to the molecule of their own block, whether it stands above or below them.

Columns and labels:
[1] = tested on: rapamycin specific antibody; assay: BIAcore binding of antibody to matrix-immobilized compound; conditions: 803 resonance units (RU) of the compound immobilized on a solid matrix, EDC and NHS
Protocol: The following example illustrates that 803 resonance units (RU) of the compound of Example 11 can be immobilized on a solid matrix using the BIAcore's standard protocol based on EDC and NHS used in a BIAcore. […] The kinetics of association and dissociation were determined for each concentration of antibody tested (0.625, 1.25, 2.5, 5.0, 10.0 ug/ml). […] This matrix can also be used for the isolation of novel binding proteins, as practiced by one skilled in the art. […] In one approach, tissue or cell lysates containing the appropriate protease inhibitors are incubated with FKBP which has been incubated with a deprotected-rapamycin 42-ester with N-[9fluoren-9-ylmethoxy)carbonyl]glycine conjugated matrix for a sufficient time to allow binding. Various buffers are used to rinse the proteins which are nonspecifically bound.

RAP-42-OVAF2#1 MoAb = conditions: for fluorescence polarization on addition of RAP-42-OVAF2#1 MoAb: 5 ug/mL MoAb
Source text: The hybridoma cell line in P4G1 was cloned by limiting dilution and is designated as hybridoma cell line, RAP-42-OVAF2#1hc.

FKBP12 [2] = target: T1, FKBP12 (Homo sapiens, UniProt P62942); assay: Fluorescence polarization, tracer binding to FKBP12; conditions: for fluorescence polarization on addition of FKBP12: 0.ug FKBP12 to 1.00 mL 10 nM tracer; for fluorescence polarization before addition of FKBP12: 1.00 mL 10 nM tracer
T1 sequence (P62942 whole entry, species assumed): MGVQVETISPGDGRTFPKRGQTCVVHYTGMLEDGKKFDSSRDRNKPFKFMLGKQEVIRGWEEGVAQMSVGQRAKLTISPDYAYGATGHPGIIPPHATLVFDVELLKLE

Anti-rapamycin Antibody = assay: Capture ELISA of anti-rapamycin antibody levels in rabbit sera; assay type: binding; conditions: sera diluted 1:5, conjugate 0.5 ng/ml
Protocol: Microtiter plates (IMMUNOLON I) were coated overnight with 100 μl of goat anti-mouse antibody (10 μg/ml in 10 mM potassium phosphate buffer, pH 7.2) at 4° C. The plates were flicked and blocked with 100 μl of 1% bovine sera albumin in phosphate buffered saline overnight at 4° C. […] After flicking and washing the plates thrice with wash buffer, TMB substrate with H2O2 was added and the plates were incubated covered for 30 min. at room temperature in the dark. The optical density was read on a spectrophotometer at 450 nm.

FKBP12 [3] = target: T1, FKBP12; assay: Fluorescence polarization competition, rapamycin-fluorescein and FKBP12; assay type: binding
mice = conditions: 50 μg intrasplenically in Complete Freund's Adjuvant, boost 50 μg into footpads
Protocol: Microtiter plates (IMMUNOLON I) were coated overnight with 100 μl of goat anti-mouse antibody (10 μg/ml in 10 mM potassium phosphate buffer, pH 7.2) at 4° C. The plates were flicked and blocked with 100 μl of 1% bovine sera albumin in phosphate buffered saline overnight at 4° C. After flicking and washing the plates thrice with 10 mM phosphate buffer, pH 7.05, 30 mM NaCl, 0.02% TRITON X-100 (polyethylene glycol tert-octylphenyl ether) and 0.004% thimerosal wash buffer, 100 μl of each mouse sera diluted with phosphate buffer solution was added to a well and incubated at room temperature for overnight.

[4] = tracer 10 nM in 100 mM sodium phosphate pH 7.5

- rapamycin specific antibody bound by the matrix [1]: 1401 RU
Molecule: COC1CC2CCC(C)C(O)(O2)C(=O)C(=O)N2CCCCC2C(=O)OC(C(C)CC2CCC(OC(=O)CNC(=O)OCC3c4ccccc4-c4ccccc43)C(OC)C2)CC(=O)C(C)C=C(C)C(O)C(OC)C(=O)C(C)CC(C)C=CC=CC=C1C (stereo not shown) [Example 11]

- binding by RAP-42-OVAF2#1 MoAb (in words) (RAP-42-OVAF2#1 MoAb): binds specifically
- fluorescence polarization on addition of FKBP12 (FKBP12 [2]): 58 mP
- fluorescence polarization before addition of FKBP12 (FKBP12 [2]): 49 mP
Molecule: Secorapamycin 42-ester with Succinic Acid Conjugate with 5-Glycinylfluoresceinamine [Example 24]
- fluorescence polarization before addition of RAP-42-OVAF2#1 MoAb (RAP-42-OVAF2#1 MoAb): 44 mP
- fluorescence polarization on addition of RAP-42-OVAF2#1 MoAb (RAP-42-OVAF2#1 MoAb): 136 mP

Molecule: Rapamycin 42-Ester with 3-[3-(4-iminobutylthio)succinimidyl]phenacyl-glycine Conjugate with Horseradish Peroxidase [Example 12]
- ΔA450 (3rd Bleed-Prebleed) (Anti-rapamycin Antibody; Rabbit No. 81): 0.217
- ΔA450 (3rd Bleed-Prebleed) (Anti-rapamycin Antibody; Rabbit No. 89): 0.026

- fluorescence polarization in the presence of analyte (FKBP12 [3]; 100 nM analyte, 128 mP in the absence of analyte, 500 uL 0.02 ug/mL FKBP12 + 500 μL 20 nM rapamycin-fluorescein): 122 mP
- effect on binding of rapamycin-fluorescein to FKBP12 (in words) (FKBP12 [3]; analyte 0 to 100 nM): no effect
- effect on binding of secorapamycin fluorescein derivative to RAP-42-OVAF2#1 (in words) (RAP-42-OVAF2#1; analyte 0 to 100 nM): inhibits binding
Molecule: CO[C@@H](C[C@@H]1CC[C@@H](C)[C@](O)(C(=O)C(=O)N2CCCC[C@H]2C(=O)[O-])O1)/C(C)=C/C=C/C=C/[C@@H](C)C[C@@H](C)C(=O)[C@H](OC)[C@H](O)/C(C)=C/[C@@H](C)C(=O)/C=C/[C@H](C)C[C@@H]1CC[C@@H](O)[C@H](OC)C1.[Na+] [secorapamycin]
- fluorescence polarization in the presence of analyte (RAP-42-OVAF2#1; 100 nM analyte, 124 mP in the absence of analyte, 500 μL 10 μg/mL MoAb + 500 μL 20 nM secorapamycin-fluorescein): 74 mP

Molecule: Rapamycin 31.42-Diester with Glutaric Acid Conjugate with Horseradish Peroxidase [Example 10]
- Prebleed (A450) (Anti-rapamycin Antibody; Rabbit No. 81): 0.119
- ΔA450 (3rd Bleed-Prebleed) (Anti-rapamycin Antibody; Rabbit No. 81): 0.713
- Prebleed (A450) (Anti-rapamycin Antibody; Rabbit No. 89): 0.136
- ΔA450 (3rd Bleed-Prebleed) (Anti-rapamycin Antibody; Rabbit No. 89): 0.037

Molecule: Rapamycin 31.42-Diester with Glutaric Acid Conjugate with Keyhole Limpet Hemocyanin [Example 8]
- mice with antibodies reactive for compound of Example 10 (mice): five of the five

Molecule: CO[C@H]1C[C@@H]2CC[C@@H](C)[C@@](O)(O2)C(=O)C(=O)N2CCCC[C@H]2C(=O)O[C@H]([C@H](C)C[C@@H]2CC[C@@H](OC(=O)CCC(=O)NCC(=O)Nc3ccc4c(c3)C(=O)OC43c4ccc(O)cc4Oc4cc(O)ccc43)[C@H](OC)C2)CC(=O)[C@H](C)/C=C(\C)[C@@H](O)[C@@H](OC)C(=O)[C@H](C)C[C@H](C)/C=C/C=C/C=C/1C [Example 23a, Rapamycin-42-ester with Succinic Acid Conjugate with 5-Glycinlfluoresceinamine]
- fluorescence polarization on addition of RAP-42-OVAF2#1 MoAb (RAP-42-OVAF2#1 MoAb): 58 mP
- polarization after addition of excess of RAP-42-OVAF2#1 MoAb (RAP-42-OVAF2#1 MoAb; [4]): 84 mP
- fluorescence polarization on addition of FKBP12 (FKBP12 [2]): 148 mP
- fluorescence polarization before addition of FKBP12 (FKBP12 [2]): 57 mP
- polarization after addition of an excess of FKBP12 (FKBP12 [2]; [4]): 195 mP
- polarization of tracer alone (FKBP12 [2]; tracer 10 nM in 100 mM sodium phosphate pH 7.5, no binder): 77 mP

B1: Rapamycin 42 Ester with (N-(3-carboxyphenyl)-3-thiosuccinimidyl)-glycine Conjugate with Horseradish Peroxidase (conjugate, UniProt P00433 31-338, looked up)
Peroxidase C1A: QLTPTFYDNSCPNVSNIVRDTIVNELRSDPRIAASILRLHFHDCFVNGCDASILLDNTTSFRTEKDAFGNANSARGFPVIDRMKAAVESACPRTVSCADLLTIAAQQSVTLAGGPSWRVPLGRRDSLQAFLDLANANLPAPFFTLPQLKDSFRNVGLNRSSDLVALSGGHTFGKNQCRFIMDRLYNFSNTGLPDPTLNTTYLQTLRGLCPLNGNLSALVDFDLRTPTIFDNKYYVNLEEQKGLIQSDQELFSSPNATDTIPLVRSFANSTQTFFNAFVEAMDRMGNITPLTGTQGQIRLNCRVVNSNS
modifications: rapamycin 42-ester hapten conjugate
- ΔA450 (3rd Bleed-Prebleed) (Anti-rapamycin Antibody; Rabbit No. 81): 0.114
- ΔA450 (3rd Bleed-Prebleed) (Anti-rapamycin Antibody; Rabbit No. 89): 0.020
